A value given as a limit tells only on which side of the number the result lay.

These results are taken from PubChem BioAssay AID504539 (Broad Institute, 2011).

The experiment has as its system Cell-based prion protein 5' UTR reporter, plate reader. In words: prion protein 5' UTR mRNA inhibitors – cell-based, plate reader, cherry-picked samples, dose response (AID 504539).

For `COc1cccc(N2CCN(C(=O)c3ccc(CS(=O)c4ccccc4C)o3)CC2)c1` (centres undefined), the half-maximal activity concentration (AC50) is 1380 nM. For `Cc1ccc(NC(=O)O/N=C/c2c(C)nn(C(C)(C)C)c2C)cc1Cl` the value was 270 nM; for `COc1cc(/C=N/O)ccc1OCc1ccc(C(=O)O)cc1`, 226 nM. For `COCCn1c(C)cc(C(=O)CSc2nnc(C)s2)c1C` the value was 696 nM. The result for `COc1ccc(C2=Nn3c(nnc3-c3ccccc3OC)SC2)cc1OC1CCCC1` reads 2970 nM; that for `CCSc1nc(-c2ccccc2)nc(C(Cl)Cl)n1`, 1060 nM; that for `CC(C)(C)c1ccc(C(=O)O/N=C(\N)c2ccccn2)cc1`, 317 nM.

`O=C(Nc1cc2ccccc2oc1=O)c1ccccc1`: the concentration at half-maximal activity (AC50) is 696 nM. For `Cc1cc(NC(=O)CSc2nc(-c3ccco3)cc(C(F)(F)F)n2)no1` the value was 560 nM. The result for `Cc1ccc(C(=O)c2cc([N+](=O)[O-])ccc2N2CCCCC2)cc1` reads 848 nM. As to `CCC1CN2CCc3cc(OC)c(OC)cc3C2CC1CC1NCCc2c1[nH]c1ccc(O)cc21` (centres undefined), the AC50 was 216 nM. For `Cc1ccc(/C=N/NC(=O)COc2ccccc2-c2ccccc2)cc1` the value was 172 nM. For `Cc1ccc2oc(/N=C(\N)NC(=O)C(C)(C)C)nc2c1` the value was below 38 nM; for `CCCc1ccc(C(=O)O/N=C(\N)c2ccccn2)cc1`, 1080 nM; for `COc1cc2c(c(OC)c1OC)-c1ccc(O)cc1C(NC(C)=O)CC2` (centres undefined), 128 nM.

Consider `COc1ccc(C[C@H]2NC[C@H](O)[C@H]2OC(C)=O)cc1`, for which the AC50 was 378 nM. The result for `O=c1c2ccccc2cnn1-c1nc2ccccc2[nH]1` reads 185 nM; that for `CC(=NNC(=S)N(Cc1ccccn1)Cc1ccccn1)c1cnccn1`, 878 nM. Regarding `COc1ccc(/C=C2\SC(=S)N(CCCC(=O)NNC(=O)c3ccccc3O)C2=O)cc1`, the AC50 is 630 nM. As to `CCN1CCN(Cc2ccc(NC(=O)c3ccc(C)c(NC(=O)c4cncc(-c5cccs5)c4)c3)cc2C(F)(F)F)CC1`, the AC50 was 156 nM. For `CCN1/C(=C\C=C\C2=[N+](CC)c3ccccc3C2(C)C)C(C)(C)c2ccccc21` the value was 924 nM; for `Cc1nc2ncccn2c1-c1csc(Nc2ccc(N(C)C)cc2)n1`, 168 nM. The result for `O=C(Nc1ccc(-c2nc3cccnc3s2)cc1)C1CCCO1` (centres undefined) reads 630 nM. The result for `CCC1=Nc2cc(C(=O)NCc3ccco3)ccc2Sc2ccc(C)cc21` reads 652 nM.

In the case of `COc1ccc(C2=Nn3c(nnc3-c3ccccc3OC)SC2)cc1OC`, the AC50 was 395 nM. The result for `CN(CCO)c1ccc(/C=N/Nc2nncc3ccccc23)cc1` reads 412 nM.

Regarding `O=C(Nc1ccc(N2CCCCC2)cc1)c1ccccn1`, the AC50 was 273 nM. `CC(C)(C)C(=O)Nc1ccc(NC(=O)c2ccco2)nc1`: the AC50 was 244 nM. The result for `CCOc1ccc(OCc2cccc(C(=O)N3CCOCC3)c2)cc1` reads 573 nM. Consider `C[C@]12CC[C@H](O)C[C@H]1CC[C@@H]1[C@@H]2C[C@@H](O)[C@]2(C)[C@@H](C3=CC(=O)OC3)CC[C@]12O`, for which the AC50 is 374 nM. For `COc1ccc(C(=O)Nc2ccc(C)cn2)c(OC)c1`, the AC50 was 280 nM. The result for `CCN(CC)c1ccc(-c2nn3c(-c4n[nH]c5c4CCC5)nnc3s2)cc1` reads 986 nM; that for `O=C(O)c1cccc(-c2noc(-c3cccc(Cl)c3)n2)c1`, 153 nM. On to `CCCCN1C=CC(=C2C(=O)c3ccccc3C2=O)C=C1`, for which the AC50 was 248 nM. Regarding `Cn1cccc1/C=C1\SC(=Nc2ccc(O)cc2)NC1=O`, the half-maximal activity concentration (AC50) is 630 nM. The result for `Cc1cc2sc3ccc(C#CC4(O)CCCCC4)cc3c(=O)c2cc1C` reads below 38 nM; that for `Cc1nn(-c2nc3ccccc3[nH]2)c(=O)c2ccccc12`, 145 nM. With `CCN(CC)c1ccc(C(=C2C=CC(=[N+](CC)CC)C=C2)c2ccccc2)cc1`, the half-maximal activity concentration (AC50) was 892 nM. The result for `CCOC(=O)c1ccc(NC(=O)Nc2ccon2)cc1` reads 596 nM. For `Cc1nn(-c2ccccc2)c(C)c1/C=N/NC(=O)c1cc(-c2cccs2)[nH]n1` the value was 1070 nM. On to `O=C1N(c2ccccc2)C[C@@H]2C[C@@H](c3cc4ccccc4o3)N3CCC[C@@]123`, for which the half-maximal activity concentration (AC50) is 511 nM.

`CC(=O)O[C@H]1C(=O)[C@]2(C)[C@H]([C@H](OC(=O)c3ccccc3)[C@]3(O)C[C@H](OC(=O)[C@H](O)[C@@H](NC(=O)c4ccccc4)c4ccccc4)C(C)=C1C3(C)C)[C@]1(OC(C)=O)CO[C@@H]1C[C@@H]2O`: the AC50 was 188 nM. The result for `COc1ccc(OC)c(Nc2c3c(nc4ccccc24)CCC3)c1` reads 1600 nM; that for `CC1=CC2OC3CC4OC(=O)C=CC=CC(=O)OCCC(C)C(O)C(=O)OCC2(CC1O)C4(C)C31CO1` (centres undefined), below 38 nM. For `CSc1nc(-c2ccccc2)nc(C(Cl)Cl)n1` the value was 1270 nM; for `COC1C(O)C(C)OC(OC2CCC3(C=O)C(CCC4C3CCC3(C)C(C5=CC(=O)OC5)CCC43O)C2)C1O` (centres undefined), below 38 nM. For `COc1c(C=O)c2c(c(OC)c1OC)-c1ccc(OC)c(=O)cc1C(NC(C)=O)CC2` (centres undefined) the value was 300 nM; for `Cc1c(C)c2ccc(OCC(=O)Nc3ccccn3)c(C)c2oc1=O`, 64 nM; for `Cc1cc(C2=NNC(=NC3CC3)SC2)c(C)n1-c1ccccc1`, below 38 nM. `COc1cc(SC)ccc1C(=O)Nc1ncc(C)s1`: the AC50 was 361 nM. In the case of `Cc1[nH]nc2ccc(-c3cncc(OC[C@@H](N)Cc4c[nH]c5ccccc45)c3)cc12`, the concentration at half-maximal activity (AC50) is 335 nM.

`COc1ccc(C(=O)c2cc([N+](=O)[O-])ccc2N2CCOCC2)cc1`: the half-maximal activity concentration (AC50) was 397 nM. For the molecule `CCn1c(C)cc(C(=O)CN2C(=O)c3ccccc3S2(=O)=O)c1C`, the AC50 is 1260 nM.

As for `C[C@H]1CCC/C=C/C2C[C@H](O)CC2[C@H](O)/C=C/C(=O)O1` (some centres undefined), the AC50 was 40 nM. On to `O=C(N/N=C/c1ccccc1)c1[nH]c2ccc(Br)cc2c1-c1ccccc1`, for which the half-maximal activity concentration (AC50) is 460 nM.

As to `Cc1ccc2nc(-c3ccc4c(c3)OCCO4)cn2c1`, the AC50 is 110 nM. The result for `Cc1ccc(C(=O)Nc2ncc(Cc3ccc(SC(F)F)cc3)s2)cc1` reads 1560 nM. Regarding `CCOc1ccc(S(=O)(=O)Nc2cc(OC)ccc2OC)cc1`, the concentration at half-maximal activity (AC50) is 873 nM. For `COCCCN=C1NN=C(c2cc(C)n(Cc3ccco3)c2C)CS1`, the half-maximal activity concentration (AC50) was 1130 nM. Turning to `C=CCn1c(C)cc(C(=O)CN2C(=O)c3ccccc3S2(=O)=O)c1C`, the concentration at half-maximal activity (AC50) was 249 nM. For `CC(=O)CSc1ccc(-c2nc3cc(C)c(C)cc3[nH]2)cn1` the value was 434 nM.

As to `COc1ccc(C(=O)/C=C/Nc2ccccn2)cc1`, the half-maximal activity concentration (AC50) is 369 nM. The result for `CCOC(=O)c1c(C)[nH]c(C(=O)N/N=C/c2ccc(Br)cc2)c1C` reads 378 nM. `COC1C(C)OC(OC2CC(C)(O)Cc3cc4c(c(O)c32)C(=O)c2c(O)cc3c(c2C4=O)OC2OC3(C)C(O)C(N(C)C)C2O)C(OC)C1(C)OC` (centres undefined): the half-maximal activity concentration (AC50) was 118 nM.

Consider `Cc1ccc(Sc2c(CO)c(-c3ccccc3)nn2C)cc1`, for which the concentration at half-maximal activity (AC50) is 528 nM. For the molecule `Cc1c(/C=N\NC(=O)C2COc3ccccc3O2)c2ccccc2n1C` (centres undefined), the AC50 was 3040 nM. In the case of `COC(C(=O)C(O)C(C)O)C1Cc2cc3cc(OC4CC(OC5CC(O)C(O)C(C)O5)C(O)C(C)O4)c(C)c(O)c3c(O)c2C(=O)C1OC1CC(OC2CC(OC3CC(O)C(OC)C(C)O3)C(O)C(C)O2)C(O)C(C)O1` (centres undefined), the half-maximal activity concentration (AC50) was 83 nM.

For the molecule `C=C1C(=O)O[C@@H]2C[C@@H](C)[C@@H]3C=CC(=O)[C@@]3(C)[C@@H](OC(=O)CC(=O)O[C@H]3[C@@H]4C(=C)C(=O)O[C@@H]4C[C@@H](C)[C@@H]4C=CC(=O)[C@]43C)[C@H]12`, the AC50 is 633 nM. The result for `Nc1ncnc2c(C3OC(CO)C(O)C3O)c[nH]c12` (centres undefined) reads 76 nM; that for `C[C@@H]1O[C@@H](O[C@@H]2C=C3CC[C@@H]4C(CC[C@]5(C)[C@@H](c6ccc(=O)oc6)CC[C@]45O)[C@@]3(C)CC2)[C@H](O)[C@H](O)[C@H]1O` (some centres undefined), below 38 nM; that for `Nc1ccc(-c2ncc(-c3ccccc3)o2)cc1`, 145 nM. The result for `N/C(=N\OC(=O)c1ccccc1Cl)c1ccccn1` reads 558 nM; that for `Cc1ccccc1OCC(=O)Nc1cccc(C(=O)O)c1`, 422 nM.

As for `CC1=C(C(=O)Nc2ccc(CC(=O)NCc3ccc(OC(C)C)cc3)cc2)SCCO1`, the AC50 was 974 nM. For `COc1ccc(-c2cc3nc(C)n(N)c(=O)c3s2)cc1` the value was 113 nM. For `CC(C)(C)c1ccc(/C=N/Nc2cccc(C(=O)O)c2)cc1` the value was 2110 nM. For the molecule `NC(=S)c1cn(C2OC(CO)C(O)C2O)c2ncnc(N)c12` (centres undefined), the AC50 was 1810 nM. As to `Cc1c(C(=O)OCCOC(C)C)[nH]c2c1C(=O)CC(c1ccco1)C2` (centres undefined), the AC50 is 450 nM. Regarding `COc1ccc(-c2nc(-c3ccccn3)no2)cc1`, the AC50 is 209 nM.

On to `C/C(=N\NC(=O)c1ccccc1NC(=O)c1ccc(Cl)cc1)c1ccncc1`, for which the concentration at half-maximal activity (AC50) was 418 nM. The result for `Cc1cc(C(=O)CSc2nnc3ccccn23)c(C)n1-c1ccccc1` reads 480 nM.

As for `CN1CCN(c2ccc([N+](=O)[O-])c3no[n+]([O-])c23)CC1`, the concentration at half-maximal activity (AC50) is 2340 nM. Regarding `O=C1NC2C(=CC(O)C(O)C2O)c2cc3c(c(O)c21)OCO3` (centres undefined), the AC50 is 205 nM.

With `COc1ccccc1C(=O)Nc1nc2ccccc2s1`, the half-maximal activity concentration (AC50) was 204 nM.

Turning to `Cc1ccc(C(=O)/C=C/Nc2ccccn2)cc1`, the concentration at half-maximal activity (AC50) is 233 nM. As to `CN1C2CCC1/C(=C/c1ccccn1)C(=O)/C2=C\c1ccccn1`, the concentration at half-maximal activity (AC50) is 773 nM. The result for `COc1cc(OC)c2c(-c3cccc(-c4ccc(C(C)=O)cc4)c3)cc(=O)oc2c1` reads 1580 nM; that for `CCc1ccn2cc(-c3ccc4c(c3)OCO4)nc2c1`, 384 nM; that for `Cc1ccc(CCC(=O)Nc2ncc(Cc3cc(Cl)ccc3Cl)s2)o1`, 841 nM. For `N#CC1=C(N)Oc2c(ccc3ccccc23)C1c1ccsc1` (centres undefined) the value was 831 nM. For `Cc1cc(C)c(S(=O)(=O)Nc2ccc3c4c(cccc24)CC3)c(C)c1` the value was 1900 nM; for `N#Cc1c(NC(=O)CSc2ncn[nH]2)sc2c1CCCCC2`, 82 nM; for `Cc1cc([N+](=O)[O-])c2ccccc2[n+]1[O-]`, 256 nM. On to `Cc1ccc(C(C)C)c(OCc2ccc(C(=O)N/N=C/c3cccc(O)c3O)cc2)c1`, for which the half-maximal activity concentration (AC50) was 1510 nM.

Broadly, the AC50 is the concentration giving half of the maximal activity seen.
